Assay results: patent publication US20040005537A1, “Method of identifying toxic agents using differential gene expression” (priority 2000, published 2004)

How the values were obtained:
rat heart tissue = assay: GENECALLING differential gene expression analysis after dosing of serotonin modulating agents; assay type: in vivo, Sprague Dawley rats
Procedure, shortened: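 GENECALLING profiling of cDNA from total RNA, keeping gene fragments modulated beyond ±1.5-fold. Tissue collected 24 h after final dosing of serotonin modulating agents; control rats received sterile water or canola oil.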

[1] = grouping used to generate the distinguishing gene profiles; cited from earlier work

CC(C)CC(N(C)C)C1(c2ccc(Cl)cc2)CCC1 (stereo not shown) [sibutramine]
Effects on Transcription Level: Novel gene fragment, 535 bp, 90% SI to mouse slow/cardiac troponin C [M29793] (rat heart tissue; CARDIOTOX 71): −1.9 fold
Effects on Transcription Level: Novel gene fragment, 445 bp, 85% SI to human skeletal muscle alpha 2 actinin [M86406] (rat heart tissue; CARDIOTOX 72): −2.2 fold
Effects on Transcription Level: Novel gene fragment, 246 bp, 89% SI to mouse ponsin-1 [AF078667] (rat heart tissue; CARDIOTOX 73): −2.8 fold
Effects on Transcription Level: Novel gene fragment, 126 bp, 77% SI to human DNA sequence from cosmid V311G7, between markers DXS366 and DXS87 on chromosome X [Z69304] (rat heart tissue; CARDIOTOX 74): +2.2 fold
Effects on Transcription Level: Novel gene fragment, 370 bp (rat heart tissue; CARDIOTOX 75): −1.9 fold
Effects on Transcription Level: Novel gene fragment, 337 bp, 78% SI to novel human protein AHNAK [M80899] (rat heart tissue; CARDIOTOX 76): −3.5 fold
Effects on Transcription Level: Novel gene fragment, 100 bp, 93% SI to human KIAA0750 protein [ABO18293] (rat heart tissue; CARDIOTOX 77): −8.4 fold
Effects on Transcription Level: Novel gene fragment, 44 bp (rat heart tissue; CARDIOTOX 78): −2.9 fold
Effects on Transcription Level: Novel gene fragment, 698 bp, 93% SI to mouse plenty-of-prolines-101 [AF062655] (rat heart tissue; CARDIOTOX 79): −2.3 fold
Effects on Transcription Level: Novel gene fragment, 660 bp, 84% SI to mouse membrane protein TMS-2 [AF181685] (rat heart tissue; CARDIOTOX 80): −1.9 fold
Effects on Transcription Level: Novel gene fragment, 115 bp (rat heart tissue; CARDIOTOX 81): −13.1 fold
Effects on Transcription Level: Novel gene fragment, 294 bp, 95% SI to mouse Ndr1 related protein Ndr2 [AB033921] (rat heart tissue; CARDIOTOX 82): −3.3 fold
Effects on Transcription Level: Novel gene fragment, 198 bp (rat heart tissue; CARDIOTOX 83): +3.1 fold
Effects on Transcription Level: Novel gene fragment, 730 bp, 86% SI to mouse E800 [Y10968] (rat heart tissue; CARDIOTOX 84): −2.1 fold
Effects on Transcription Level: Novel gene fragment, 294 bp, 98% SI to cysteine conjugate beta-lyase [S61960] (rat heart tissue; CARDIOTOX 85): −2.1 fold
Effects on Transcription Level: Aconitase (rat heart tissue; CARDIOTOX 86, GenBank A1243266): −2.9 fold
Effects on Transcription Level: Ribosomal protein L7 (rat heart tissue; CARDIOTOX 87, GenBank M17422): +3.7 fold
Effects on Transcription Level: Ribosomal protein L9 (rat heart tissue; CARDIOTOX 88, GenBank X51706): +8.0 fold
Effects on Transcription Level: Ribosomal protein L12 (rat heart tissue; CARDIOTOX 89, GenBank X53504): −1.5 fold
Effects on Transcription Level: 18S, 5.8S, and 28S ribosomal RNA's (rat heart tissue; CARDIOTOX 90, GenBank V01270): +6 fold
Effects on Transcription Level: Pyruvate dehydrogenase kinase 2 (PDK2) (rat heart tissue; CARDIOTOX 91, GenBank U10357): −9.5 fold
Effects on Transcription Level: D-Binding Protein (DBP) (rat heart tissue; CARDIOTOX 92, GenBank J03179): −1.7 fold
Effects on Transcription Level: Lipoprotein lipase (rat heart tissue; CARDIOTOX 93, GenBank L03294): −2.5 fold
Effects on Transcription Level: Non-neuronal enolase (rat heart tissue; CARDIOTOX 94, GenBank X02610): +3.1 fold
Effects on Transcription Level: Glycogen phosphorylase (muscle isozyme) (rat heart tissue; CARDIOTOX 95, GenBank L10669): −2.0 fold
Effects on Transcription Level: Cytochrome c oxidase subunit IV (rat heart tissue; CARDIOTOX 96, GenBank X14209): +8.0 fold
Effects on Transcription Level: Alpha-globin (rat heart tissue; CARDIOTOX 97, GenBank M17083): +7.0 fold
Effects on Transcription Level: Beta-globin (rat heart tissue; CARDIOTOX 98, GenBank X06701): +5.0 fold
Effects on Transcription Level: Myoglobin (rat heart tissue; CARDIOTOX 99, GenBank AF197916): +7.0 fold
Effects on Transcription Level: Titin (rat heart tissue; CARDIOTOX 100, GenBank L38717): +1.5 fold
Effects on Transcription Level: Skeletal muscle actin (rat heart tissue; CARDIOTOX 101, GenBank V01218): −3.8 fold
Effects on Transcription Level: Myosin light chain 2 (MLC2) (rat heart tissue; CARDIOTOX 102, GenBank M11851): +1.9 fold
Effects on Transcription Level: Alpha cardiac myosin heavy chain (rat heart tissue; CARDIOTOX 103, GenBank X15938): −3.2 fold
Effects on Transcription Level: Troponin I (rat heart tissue; CARDIOTOX 104, GenBank U77354): +1.6 fold
Effects on Transcription Level: Cardiac calsequestrin (rat heart tissue; CARDIOTOX 105, GenBank AF001334): −2.5 fold
Effects on Transcription Level: Sulfated glycoprotein 2 (rat heart tissue; CARDIOTOX 106, GenBank M16975): −1.5 fold
Effects on Transcription Level: Aquaporin 7 (rat heart tissue; CARDIOTOX 107, GenBank AB000507): +1.6 fold
Effects on Transcription Level: Carnitine/acylcarnitine carrier protein (rat heart tissue; CARDIOTOX 108, GenBank X97831): −1.9 fold
Effects on Transcription Level: Glu-Pro Dipeptide Repeat (rat heart tissue; CARDIOTOX 109, GenBank U40628): −5.5 fold
Effects on Transcription Level: Cystatin beta (rat heart tissue; CARDIOTOX 110, GenBank X54737): +3.1 fold
Effects on Transcription Level: Novel gene fragment, 593 bp, 90% SI to human calcineurin B-like protein [Z08983] (rat heart tissue; CARDIOTOX 111): +2.1 fold
Effects on Transcription Level: Novel gene fragment, 179 bp, 88% SI to human titin [X90568] (rat heart tissue; CARDIOTOX 112): −2.0 fold
Effects on Transcription Level: Novel gene fragment, 700 bp, 91% SI to mouse periplakin (PPL) [AF116523] (rat heart tissue; CARDIOTOX 113): +2.2 fold
Effects on Transcription Level: Long chain acyl-CoA dehydrogenase (LCAD) (rat heart tissue; CARDIOTOX 114, GenBank J05029): +1.8 fold
Effects on Transcription Level: Sulfated glycoprotein 1 (SGP-1) (rat heart tissue; CARDIOTOX 115, GenBank M19936): −2.3 fold
Effects on Transcription Level: Catalase (rat heart tissue; CARDIOTOX 116, GenBank M11670): +1.8 fold
Effects on Transcription Level: Alpha-fodrin (A2A) (Nonerythroid spectrin alpha subunit) (rat heart tissue; CARDIOTOX 117, GenBank AF084186): +5.0 fold
Effects on Transcription Level: Cardiac specific sodium channel alpha-subunit (rat heart tissue; CARDIOTOX 118, GenBank M27902): −2.9 fold
Effects on Transcription Level: Glu-Pro Dipeptide Repeat (rat heart tissue; CARDIOTOX 119, GenBank U40628): +6.0 fold
Effects on Transcription Level: Novel gene fragment, 200 bp, 64% SI to human KIAA0733 protein [AB018316] (rat heart tissue; CARDIOTOX 120): −1.5 fold
Effects on Transcription Level: RNA polymerase II transcription factor SIII (p18 subunit) (rat heart tissue; CARDIOTOX 121, GenBank L42855): +2.0 fold
Effects on Transcription Level: Protein-tyrosine phosphalase (LRP) (rat heart tissue; CARDIOTOX 122, GenBank L01702): +1.5 fold
Effects on Transcription Level: Skeletal muscle selenoprotein W (SelW) (rat heart tissue; CARDIOTOX 123, GenBank U25264): −1.5 fold
Effects on Transcription Level: Sarcoplasmic reticulum 2+-Ca-ATPase (rat heart tissue; CARDIOTOX 124, GenBank X15635): −2.0 fold
Effects on Transcription Level: Ribosomal protein S7 (rat heart tissue; CARDIOTOX 125, GenBank X53377): +1.8 fold
Effects on Transcription Level: Ribophorin I (rat heart tissue; CARDIOTOX 126, GenBank X05300): +1.6 fold
Effects on Transcription Level: Beta cardiac myosin heavy chain (rat heart tissue; CARDIOTOX 127, GenBank X15939): −1.7 fold
Effects on Transcription Level: ADP-ribosylation factor 1 (rat heart tissue; CARDIOTOX 128, GenBank L12380): −2.0 fold
Effects on Transcription Level: Laminin receptor (rat heart tissue; CARDIOTOX 129, GenBank U04942): +4.6 fold
Effects on Transcription Level: Novel gene fragment, 206 bp, 89% SI to human seryl-tRNA synthetase [X91257] (rat heart tissue; CARDIOTOX 130): +1.4 fold
Effects on Transcription Level: Annexin VI (rat heart tissue; CARDIOTOX 131, GenBank X86086): +1.4 fold
Effects on Transcription Level: Novel gene fragment, 325 bp, 90% SI to mouse N-RAP [U76618] (rat heart tissue; CARDIOTOX 132): −1.1 fold
Effects on Transcription Level: Novel gene fragment, 61 bp (CARDIOTOX 134) (rat heart tissue; LD10 dose for three days): +1.0 fold
Effects on Transcription Level: Novel gene fragment, 337 bp (CARDIOTOX 133) (rat heart tissue; LD10 dose for three days): −1.1 fold
Effects on Transcription Level: Novel gene fragment, 378 bp, 88% SI to human coatomer protein (COPA) [U24105] (CARDIOTOX 138) (rat heart tissue; LD10 dose for three days): −2.3 fold
Effects on Transcription Level: Long chain 3-ketoacyl-CoA thiolase (CARDIOTOX 136) (rat heart tissue; LD10 dose for three days, GenBank D16479): −2.0 fold
Effects on Transcription Level: TATA-binding protein interacting protein 120 (TIP120) (CARDIOTOX 135) (rat heart tissue; LD10 dose for three days, GenBank D87671): +1.3 fold
Effects on Transcription Level: Serine protease (CARDIOTOX 139) (rat heart tissue; LD10 dose for three days, GenBank D88250): +1.3 fold
Effects on Transcription Level: Thymosin beta-4 (CARDIOTOX 137) (rat heart tissue; LD10 dose for three days, GenBank M34043): +1.5 fold
classification as cardiotoxic or noncardiotoxic serotonin modulating agent [1]: noncardiotoxic
